For three compounds, IC50 results are on record in BindingDB's records for doi:10.1016/j.bmcl.2006.02.063 (The University of Kansas, 2006).

The assay can be described thus: Inhibition of Her2 in SKBr3 cells by ELISA.

Compound `CC1(C)CC(=O)C2C(=Nc3ccccc3NC2c2cccc(O)c2O)C1` (stereo not drawn) [3-(1-hydroxy-3,3-dimethyl-3,4,10,11-tetrahydro-2H-dibenzo[b,e][1,4]diazepin-11-yl)-benzene-1,2-diol] had a 50% inhibitory concentration (IC50) of 61 µM.

On to `O=S(=O)(Nc1ccc(Cl)cc1O)c1ccccc1`, for which the half-maximal inhibitory concentration (IC50) was determined as 31 µM.

As to `COc1cc(C2CC(c3ccccc3O)N=N2)ccc1O` (stereo not drawn) [6-[5-(4-hydroxy-3-methoxyphenyl)-3-pyrazolidinylidene]-1-cyclohexa-2,4-dienone], it took 18 µM to reach half-maximal inhibition (IC50).
